Experimental data taken from ChEMBL document CHEMBL4732263 (Bioorg Med Chem, 2021).
pIC50: −log10 of the molar value. ≈ marks a conversion by molar mass, not a printed value.

How the values were obtained:
physchem [1] = settings: HCl, pH 2, pH 2
physchem [2] = settings: PBS, pH 6.5, pH 6.5
[3] = molecular target: Voltage-gated inwardly rectifying potassium channel KCNH2 (Homo sapiens, UniProt Q12809)
[4] = mouse, blood, 2 h; at 1 µg/mL
in vitro [5] = settings: human, Caco-2
[6] = Ratio of drug level in blood to plasma in Sprague-Dawley rat at 3.9 mg/kg, iv up to 24 hrs by LC-MS analysis by LC-MS analysis; assay type: ADME, organism-based; settings: whole blood and plasma
[7] = human, microsomes, 1 h, 1 µM
in vitro [8] = settings: human, Caco-2; remark: listed apart in the source
in vitro [9] = settings: human, Caco-2; remark: listed apart in the source
[10] = Volume of distribution at steady state in Balb/C mouse plasma at 2.6 mg/kg, iv up to 24 hrs by LC-MS analysis; assay type: ADME, organism-based; settings: read-out: Vdss
in vitro [11] = settings: mouse, liver microsomes
cells = settings: Homo sapiens, HEK293, 10 min
[12] = Plasma clearance in Balb/C mouse at 2.6 mg/kg, iv up to 24 hrs by LC-MS analysis; assay type: ADME, organism-based
[13] = Plasma clearance in Sprague-Dawley rat at 3.9 mg/kg, iv up to 24 hrs by LC-MS analysis; assay type: ADME, organism-based
[14] = Half life in Sprague-Dawley rat at 3.9 mg/kg, iv up to 24 hrs by LC-MS analysis; assay type: ADME, organism-based; settings: in vivo
[15] = molecular target: Sodium channel protein type 5 subunit alpha (Homo sapiens, UniProt Q14524)
in vitro [16] = settings: human, Caco-2; remark: listed apart in the source
[17] = octanol/water, pH 7.4
[18] = Clearance in Sprague-Dawley rat renal blood at 3.9 mg/kg, iv up to 24 hrs by LC-MS analysis; assay type: ADME, organism-based; settings: whole blood
in vitro [19] = settings: human, liver microsomes
in vitro [20] = settings: human, Caco-2; remark: listed apart in the source
[21] = Volume of distribution at steady state in Balb/C mouse blood at 2.6 mg/kg, iv up to 24 hrs by LC-MS analysis; assay type: ADME, organism-based; settings: whole blood, read-out: Vdss
[22] = AUC(0 to infinity) in Balb/C mouse plasma at 2.6 mg/kg, iv up to 24 hrs by LC-MS analysis; assay type: ADME, organism-based; set-up: route intravenous, dose 2.6 mg/kg, time <=24
[23] = mouse, microsomes, 1 h, 1 µM
in vitro [24] = settings: Balb/C, mouse, plasma; at 1 µg/mL
[25] = Clearance in Sprague-Dawley rat blood at 3.9 mg/kg, iv up to 24 hrs by LC-MS analysis; assay type: ADME, organism-based; settings: whole blood
[26] = Clearance in Balb/C mouse blood at 2.6 mg/kg, iv up to 24 hrs by LC-MS analysis; assay type: ADME, organism-based; settings: whole blood
[27] = Drug metabolism in Sprague-Dawley rat at 3.9 mg/kg, iv by LC-MS analysis; assay type: ADME, organism-based; settings: in vivo
in vitro [28] = settings: mouse, liver microsomes; remark: listed apart in the source
[29] = Ratio of drug level in blood to plasma in Balb/C mouse plasma at 2.6 mg/kg, iv up to 24 hrs by LC-MS analysis; assay type: ADME, organism-based; settings: blood and plasma
in vivo = settings: Balb/C, mouse, po, at 1.9 to 3.5 mg/kg
in vitro [30] = settings: human, liver microsomes; remark: listed apart in the source
[31] = AUC(0 to infinity) in Sprague-Dawley rat plasma at 3.9 mg/kg, iv up to 24 hrs by LC-MS analysis; assay type: ADME, organism-based; set-up: route intravenous, dose 3.9 mg/kg, time <=24
[32] = Volume of distribution at steady state in Sprague-Dawley rat blood at 3.9 mg/kg, iv up to 24 hrs by LC-MS analysis; assay type: ADME, organism-based; settings: whole blood, read-out: Vdss
in vitro [33] = settings: Balb/C, mouse, plasma; at 1 µg/mL; remark: listed apart in the source
[34] = Drug excretion in Sprague-Dawley rat urine at 3.9 mg/kg, iv up to 24 hrs by LC-MS analysis; assay type: ADME, organism-based; settings: read-out: Drug excretion
[35] = Apparent half life in Balb/C mouse at 2.6 mg/kg, iv up to 24 hrs by LC-MS analysis; assay type: ADME, organism-based; settings: in vivo, read-out: t1/2(app) (converted)
[36] = Volume of distribution at steady state in Sprague-Dawley rat plasma at 3.9 mg/kg, iv up to 24 hrs by LC-MS analysis; assay type: ADME, organism-based; settings: read-out: Vdss
[37] = Ratio of drug level in blood to plasma in Balb/C mouse plasma at 2.5 mg/kg, iv up to 24 hrs by LC-MS analysis; assay type: ADME, organism-based; settings: whole blood and plasma
[38] = Volume of distribution at steady state in Balb/C mouse plasma at 2.5 mg/kg, iv up to 24 hrs by LC-MS analysis; assay type: ADME, organism-based; settings: read-out: Vdss
[39] = Ratio of drug level in blood to plasma in Sprague-Dawley rat at 2.5 mg/kg, iv up to 24 hrs by LC-MS analysis by LC-MS analysis; assay type: ADME, organism-based; settings: blood and plasma
[40] = Clearance in Balb/C mouse blood at 2.5 mg/kg, iv up to 24 hrs by LC-MS analysis; assay type: ADME, organism-based; settings: whole blood
[41] = AUC(0 to infinity) in Sprague-Dawley rat plasma at 2.5 mg/kg, iv up to 24 hrs by LC-MS analysis; assay type: ADME, organism-based; set-up: route intravenous, dose 2.5 mg/kg, time <=24
[42] = Half life in Sprague-Dawley rat at 2.5 mg/kg, iv up to 24 hrs by LC-MS analysis; assay type: ADME, organism-based; settings: in vivo
[43] = Clearance in Sprague-Dawley rat blood at 2.5 mg/kg, iv up to 24 hrs by LC-MS analysis; assay type: ADME, organism-based; settings: whole blood
[44] = Volume of distribution at steady state in Balb/C mouse blood at 2.5 mg/kg, iv up to 24 hrs by LC-MS analysis; assay type: ADME, organism-based; settings: whole blood, read-out: Vdss
[45] = Plasma clearance in Balb/C mouse at 2.5 mg/kg, iv up to 24 hrs by LC-MS analysis; assay type: ADME, organism-based
[46] = Drug metabolism in Sprague-Dawley rat assessed amiloride formation at 2.5 mg/kg, iv after 4.8 mins by LC-MS analysis; assay type: ADME, organism-based; settings: in vivo, 0.08 h
[47] = AUC(0 to infinity) in Balb/C mouse plasma at 2.5 mg/kg, iv up to 24 hrs by LC-MS analysis; assay type: ADME, organism-based; set-up: route intravenous, dose 2.5 mg/kg, time <=24
[48] = Volume of distribution at steady state in Sprague-Dawley rat plasma at 2.5 mg/kg, iv up to 24 hrs by LC-MS analysis; assay type: ADME, organism-based; settings: read-out: Vdss
[49] = Drug excretion in Sprague-Dawley rat urine at 2.5 mg/kg, iv up to 24 hrs by LC-MS analysis; assay type: ADME, organism-based; settings: read-out: Drug excretion
[50] = Apparent half life in Balb/C mouse at 2.5 mg/kg, iv up to 24 hrs by LC-MS analysis; assay type: ADME, organism-based; settings: in vivo, read-out: t1/2(app) (converted)
[51] = Plasma clearance in Sprague-Dawley rat at 2.5 mg/kg, iv up to 24 hrs by LC-MS analysis; assay type: ADME, organism-based
[52] = Volume of distribution at steady state in Sprague-Dawley rat blood at 2.5 mg/kg, iv up to 24 hrs by LC-MS analysis; assay type: ADME, organism-based; settings: whole blood, read-out: Vdss
[53] = Clearance in Sprague-Dawley rat renal blood at 2.5 mg/kg, iv up to 24 hrs by LC-MS analysis; assay type: ADME, organism-based; settings: whole blood

Sequence of Voltage-gated inwardly rectifying potassium channel KCNH2 (Q12809 whole entry): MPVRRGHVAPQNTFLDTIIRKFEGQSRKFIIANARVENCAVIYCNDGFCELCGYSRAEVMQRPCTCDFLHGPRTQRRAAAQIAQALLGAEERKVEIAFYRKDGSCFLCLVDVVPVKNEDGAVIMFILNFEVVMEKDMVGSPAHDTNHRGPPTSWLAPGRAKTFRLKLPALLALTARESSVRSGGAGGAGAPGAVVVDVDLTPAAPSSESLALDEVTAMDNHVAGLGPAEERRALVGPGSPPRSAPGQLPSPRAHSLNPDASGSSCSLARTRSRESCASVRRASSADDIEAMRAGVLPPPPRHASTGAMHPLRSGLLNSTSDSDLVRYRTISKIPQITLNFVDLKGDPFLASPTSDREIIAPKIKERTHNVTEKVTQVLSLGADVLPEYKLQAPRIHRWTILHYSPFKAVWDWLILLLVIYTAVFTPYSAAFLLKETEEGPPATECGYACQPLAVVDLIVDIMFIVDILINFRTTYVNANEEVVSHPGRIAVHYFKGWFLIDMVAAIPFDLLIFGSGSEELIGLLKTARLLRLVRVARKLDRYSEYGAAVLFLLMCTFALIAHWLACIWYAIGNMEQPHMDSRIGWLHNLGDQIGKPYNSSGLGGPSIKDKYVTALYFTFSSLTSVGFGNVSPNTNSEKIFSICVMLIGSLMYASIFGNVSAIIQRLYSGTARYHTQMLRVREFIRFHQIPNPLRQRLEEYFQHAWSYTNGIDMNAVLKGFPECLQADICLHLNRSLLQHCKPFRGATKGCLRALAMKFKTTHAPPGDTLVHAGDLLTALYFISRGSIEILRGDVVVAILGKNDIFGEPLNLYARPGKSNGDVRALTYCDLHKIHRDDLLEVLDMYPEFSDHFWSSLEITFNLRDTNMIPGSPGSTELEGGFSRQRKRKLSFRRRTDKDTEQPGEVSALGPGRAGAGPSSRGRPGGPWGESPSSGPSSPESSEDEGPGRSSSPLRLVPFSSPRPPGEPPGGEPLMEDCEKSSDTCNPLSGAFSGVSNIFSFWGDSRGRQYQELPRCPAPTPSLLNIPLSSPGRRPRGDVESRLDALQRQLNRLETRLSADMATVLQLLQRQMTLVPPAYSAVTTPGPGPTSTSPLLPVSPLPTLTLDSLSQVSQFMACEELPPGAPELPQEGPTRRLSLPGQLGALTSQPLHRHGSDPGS
Sequence of Sodium channel protein type 5 subunit alpha (Q14524 whole entry): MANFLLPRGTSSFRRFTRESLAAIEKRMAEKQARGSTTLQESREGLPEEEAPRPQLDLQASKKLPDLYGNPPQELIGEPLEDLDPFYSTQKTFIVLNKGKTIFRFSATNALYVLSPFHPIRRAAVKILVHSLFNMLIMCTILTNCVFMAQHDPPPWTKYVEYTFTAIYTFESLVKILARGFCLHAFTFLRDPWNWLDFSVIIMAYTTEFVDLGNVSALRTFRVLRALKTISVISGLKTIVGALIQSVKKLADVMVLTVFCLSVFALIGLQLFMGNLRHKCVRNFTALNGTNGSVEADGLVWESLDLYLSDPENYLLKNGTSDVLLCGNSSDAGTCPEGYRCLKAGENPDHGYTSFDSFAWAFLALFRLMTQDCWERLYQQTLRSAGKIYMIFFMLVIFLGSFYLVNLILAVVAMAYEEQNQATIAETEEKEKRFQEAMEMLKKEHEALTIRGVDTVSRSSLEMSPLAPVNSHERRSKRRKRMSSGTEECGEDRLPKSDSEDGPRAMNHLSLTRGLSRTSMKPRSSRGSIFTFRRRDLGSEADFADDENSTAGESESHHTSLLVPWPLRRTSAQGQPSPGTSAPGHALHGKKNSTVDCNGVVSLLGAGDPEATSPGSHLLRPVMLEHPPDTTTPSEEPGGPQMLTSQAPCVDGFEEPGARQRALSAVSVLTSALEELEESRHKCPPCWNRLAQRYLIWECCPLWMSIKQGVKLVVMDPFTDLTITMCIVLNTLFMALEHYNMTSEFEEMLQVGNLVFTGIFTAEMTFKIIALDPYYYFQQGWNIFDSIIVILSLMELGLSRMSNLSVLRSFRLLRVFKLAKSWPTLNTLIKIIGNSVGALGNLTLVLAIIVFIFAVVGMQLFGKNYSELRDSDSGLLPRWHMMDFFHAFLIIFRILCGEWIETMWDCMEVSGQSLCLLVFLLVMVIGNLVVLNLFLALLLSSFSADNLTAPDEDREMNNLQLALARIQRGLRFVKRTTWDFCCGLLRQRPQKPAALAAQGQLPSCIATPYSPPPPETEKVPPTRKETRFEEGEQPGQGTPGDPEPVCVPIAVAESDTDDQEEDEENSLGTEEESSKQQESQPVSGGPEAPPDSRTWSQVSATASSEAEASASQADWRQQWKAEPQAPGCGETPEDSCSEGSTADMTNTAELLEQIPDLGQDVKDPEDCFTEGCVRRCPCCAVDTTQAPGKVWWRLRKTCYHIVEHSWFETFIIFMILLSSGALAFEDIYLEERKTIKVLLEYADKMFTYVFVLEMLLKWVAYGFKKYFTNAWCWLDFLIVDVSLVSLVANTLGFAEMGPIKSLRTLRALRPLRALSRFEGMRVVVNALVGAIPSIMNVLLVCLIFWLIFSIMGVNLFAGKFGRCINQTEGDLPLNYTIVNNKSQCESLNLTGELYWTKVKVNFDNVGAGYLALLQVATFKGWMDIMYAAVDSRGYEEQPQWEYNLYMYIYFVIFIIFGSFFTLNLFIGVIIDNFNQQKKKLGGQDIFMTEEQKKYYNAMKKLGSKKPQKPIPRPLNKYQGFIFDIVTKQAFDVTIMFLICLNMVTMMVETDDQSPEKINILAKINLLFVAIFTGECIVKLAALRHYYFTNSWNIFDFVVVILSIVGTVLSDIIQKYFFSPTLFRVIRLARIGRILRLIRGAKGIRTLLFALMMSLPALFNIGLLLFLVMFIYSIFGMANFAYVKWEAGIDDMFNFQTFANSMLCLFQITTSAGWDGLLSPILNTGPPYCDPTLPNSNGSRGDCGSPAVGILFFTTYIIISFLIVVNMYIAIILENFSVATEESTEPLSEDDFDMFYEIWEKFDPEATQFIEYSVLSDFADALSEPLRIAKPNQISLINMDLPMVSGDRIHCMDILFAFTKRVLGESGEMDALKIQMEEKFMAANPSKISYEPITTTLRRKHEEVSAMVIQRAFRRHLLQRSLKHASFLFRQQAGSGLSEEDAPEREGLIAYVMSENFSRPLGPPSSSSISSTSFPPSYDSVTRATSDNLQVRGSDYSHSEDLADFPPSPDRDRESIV

Structure (SMILES) | solubility kinetic (physchem [1]) [µg/mL] | solubility kinetic (physchem [2]) [µg/mL] | pIC50 [3] | Stabilty [4] | Papp B→A at 2 h, 20 µM (in vitro [5]) [×10⁻⁶ cm/s] | CL free [7] [µL/min/mg] | recovery at 2 h, 20 µM (in vitro [8]) [%] | Papp A→B at 2 h, 20 µM (in vitro [9]) [×10⁻⁶ cm/s] | half-life at 1 h, 1 µM (in vitro [11]) [h] | pIC50 (cells) | pIC50 [15] | recovery at 2 h, 20 µM (in vitro [16]) [%] | logD [17] | half-life at 1 h, 1 µM (in vitro [19]) [h] | efflux ratio at 2 h, 20 µM (in vitro [20]) | CL free [23] [µL/min/mg] | fraction unbound at […], 1 ug/ml (in vitro [24]) | microsomal CLint at 1 h, 1 µM (in vitro [28]) [µL/min/mg] | bioavailability at 24 h (in vivo) [%] | microsomal CLint at 1 h, 1 µM (in vitro [30]) [µL/min/mg] | also measured
N=C(N)NC(=O)c1nc(-c2cc3ccccc3o2)c(N2CCCCCC2)nc1N | 12.5 (≈ 31.8 µM) | 1.6 (≈ 4.07 µM) | > 5.52 | Unstable | 12 | 888 | 76 | 0.3 | 0.4 | > 5.52 | > 5.52 | 29 | 5.1 | 1.13 | 40 | 888 | 0.02 | 73 | < 5 | 26 | blood plasma ratio at 24 h [6]: 1.4; Vd [10]: 2.3 L/kg; clearance [12]: 71 mL/min/kg; clearance [13]: 56.9 mL/min/kg; half-life [14]: 7 h; CL renal at 24 h [18]: 0.01 mL/min/kg; Vd [21]: 1.7 L/kg; AUC(0-inf) [22]: 1.6 µM·h; clearance [25]: 39.5 mL/min/kg; clearance [26]: 53 mL/min/kg; Drug metabolism [27]: Metabolite_Notdetected; blood plasma ratio at 24 h [29]: 1.4; AUC(0-inf) [31]: 2.9 µM·h; Vd [32]: 8.6 L/kg; metabolised at 4 h, 1 ug/ml (in vitro [33]): < 6%; dose excreted at 24 h [34]: 0.02%; half-life [35]: 1.7 h; Vd [36]: 12.4 L/kg
N=C(N)NC(=O)c1nc(Cl)c(N2CCCCCC2)nc1N [N,N-HEXAMETHYLENEAMILORIDE] | > 100 | 50 (≈ 160 µM) | 5.48 | Unstable | 56 | 74 | 100 | 15 | 0.04 | 5.08 | 4.52 | 79 | 3.8 | 1.22 | 3.8 | 2243 | 0.03 | 726 | 4.5 | 24 | blood plasma ratio at 24 h [37]: 1.5; Vd [38]: 2 L/kg; blood plasma ratio at 24 h [39]: 1.8; clearance [40]: 59 mL/min/kg; AUC(0-inf) [41]: 1.6 µM·h; half-life [42]: 3.2 h; clearance [43]: 46.2 mL/min/kg; Vd [44]: 1.4 L/kg; clearance [45]: 86 mL/min/kg; Drug metabolism [46]: Metabolite_Detected; AUC(0-inf) [47]: 1.5 µM·h; Vd [48]: 5.3 L/kg; dose excreted at 24 h [49]: 0.5%; metabolised at 4 h, 1 ug/ml (in vitro [33]): < 6%; half-life [50]: 0.62 h; clearance [51]: 83.5 mL/min/kg; Vd [52]: 2.9 L/kg; CL renal at 24 h [53]: 0.2 mL/min/kg
